Measured values reported in ChEMBL document CHEMBL1159261, “New bioactive monotetrahydrofuran Annonaceous acetogenins, annomuricin C and muricatocin C, from the leaves of Annona muricata” (J Nat Prod, 1995).
≈ marks a conversion by molar mass, not a printed value.

What was measured:
[1] = Toxicity against brine shrimp; assay type: organism-based; settings: artemia, in vivo; read-out: LD50 (the source's name)
A549 = experiment: Cytotoxicity against human A549 cells after 7 days by MTT assay; assay type: functional; settings: A549, 168 h, read-out: ED50 (the source's name)
MCF7 = experiment: Cytotoxicity against human MCF7 cells after 7 days by MTT assay; assay type: functional; settings: MCF7, 168 h, read-out: ED50 (the source's name)
HT-29 = experiment: Cytotoxicity against human HT-29 cells after 7 days by MTT assay; assay type: functional; settings: HT-29, 168 h, read-out: ED50 (the source's name)

SMILES | LC50 [1] [µg/mL] | EC50 (A549) [µg/mL] | EC50 (MCF7) [µg/mL] | EC50 (HT-29) [µg/mL]
CCCCCCCCCCCC[C@@H](O)[C@H]1CC[C@H]([C@H](O)CC[C@@H](O)C[C@H](O)CCCCC[C@@H](O)CC2=C[C@H](C)OC2=O)O1 [MURICATOCIN C] | 0.604 (≈ 0.985 µM) | 0.0909 (≈ 0.148 µM) | 0.0645 (≈ 0.105 µM) | 1.48 (≈ 2.41 µM)
CCCCCCCCCCCC[C@@H](O)[C@H]1CC[C@H]([C@H](O)CCC[C@H](O)[C@@H](O)CCCCC[C@@H](O)CC2=C[C@H](C)OC2=O)O1 [ANNOMURICIN C] | 0.613 (≈ 1 µM) | 0.308 (≈ 0.503 µM) | 0.228 (≈ 0.372 µM) | 1.54 (≈ 2.51 µM)
CCCCCCCCCCCC[C@@H](O)[C@H]1CC[C@H]([C@H](O)CCC[C@@H]2OC(C)(C)O[C@@H]2CCCCC[C@@H](O)CC2=C[C@H](C)OC2=O)O1 | 0.235 (≈ 0.36 µM) | 0.0698 (≈ 0.107 µM) | 0.00481 (≈ 0.00737 µM) | 1.41 (≈ 2.16 µM)
CCCCCCCCCCCC[C@@H](O)[C@H]1CC[C@H]([C@H](O)CC[C@@H]2C[C@@H](CCCCC[C@@H](O)CC3=C[C@H](C)OC3=O)OC(C)(C)O2)O1 | 0.189 (≈ 0.289 µM) | 0.00376 (≈ 0.00576 µM) | 0.00398 (≈ 0.0061 µM) | 0.261 (≈ 0.4 µM)
COc1cccc2c1C(=O)c1c(O)c3c(c(O)c1C2=O)C[C@@](O)(C(=O)CO)C[C@@H]3O[C@H]1C[C@H](N)[C@H](O)[C@H](C)O1 [DOXORUBICIN] | – | – | 0.106 (≈ 0.195 µM) | 0.0348 (≈ 0.064 µM)
